Reference: patent publication US20210053957A1, “HERBICIDAL COMPOUNDS” (SYNGENTA PARTICIPATIONS AG, priority 2018, published 2021)
Structures can show the parent of a compound that is named as a salt.

Legend:
Assay in all cases: Post-emergence efficacy, glasshouse spray test
Assay type in all cases: in vivo
[1] = test system: Setaia fabei (SETFA); conditions: Application Rate 500 g/Ha, evaluated after 13 days; for pest or weed control at 500 g/ha: Setaria faberi, post-emergence, 312 h, read-out: Control of weed species after post-emergence application, SETFA (100=total damage to plant; 0=no damage to plant)
Summary of the method: (§1)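 Treatment at 14 days after sowing with an aqueous spray made by diluting a 50 g/l stock (acetone + IF50: Emulsogen EL360, N-methyl pyrrolidone, Dowanol DPM) in surfactant plus ammonium sulphate. Damage scored 0–100 after 13 days.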

[2] = test system: Lolium perenne (LOLPE); conditions: Application Rate 500 g/Ha, evaluated after 13 days; for pest or weed control at 500 g/ha: Lolium perenne, post-emergence, 312 h, read-out: Control of weed species after post-emergence application, LOLPE (100=total damage to plant; 0=no damage to plant)
Summary of the method: as §1

[3] = test system: Chenopodium album (CHEAL); conditions: Application Rate 500 g/Ha, evaluated after 13 days; for pest or weed control at 500 g/ha: Chenopodium album, post-emergence, 312 h, read-out: Control of weed species after post-emergence application, CHEAL (100=total damage to plant; 0=no damage to plant)
Summary of the method: as §1

[4] = test system: Ipomoea hederacea (IPOHE); conditions: Application Rate 500 g/Ha, evaluated after 13 days; for pest or weed control at 500 g/ha: Ipomoea hederacea, post-emergence, 312 h, read-out: Control of weed species after post-emergence application, IPOHE (100=total damage to plant; 0=no damage to plant)
Summary of the method: as §1

[5] = test system: Echinochloa crus-galli (ECHCG); conditions: Application Rate 500 g/Ha, evaluated after 13 days; for pest or weed control at 500 g/ha: Echinochloa crus-galli, post-emergence, 312 h, read-out: Control of weed species after post-emergence application, ECHCG (100=total damage to plant; 0=no damage to plant)
Summary of the method: as §1

[6] = test system: Amaranthus palmeri (AMAPA); conditions: Application Rate 500 g/Ha, evaluated after 13 days; for pest or weed control at 500 g/ha: Amaranthus palmeri, post-emergence, 312 h, read-out: Control of weed species after post-emergence application, AMAPA (100=total damage to plant; 0=no damage to plant)
Summary of the method: as §1

[7] = test system: Eleusine indica (ELEIN); conditions: Application Rate 500 g/Ha, evaluated after 13 days; for pest or weed control at 500 g/ha: Eleusine indica, post-emergence, 312 h, read-out: Control of weed species after post-emergence application, ELEIN (100=total damage to plant; 0=no damage to plant)
Summary of the method: as §1

[8] = test system: Digitaria sanguinalis (DIGSA); conditions: Application Rate 500 g/Ha, evaluated after 13 days; for pest or weed control at 500 g/ha: Digitaria sanguinalis, post-emergence, 312 h, read-out: Control of weed species after post-emergence application, DIGSA (100=total damage to plant; 0=no damage to plant)
Summary of the method: as §1

[9] = test system: Euphorbia heterophylla (EPHHL); conditions: Application Rate 500 g/Ha, evaluated after 13 days; for pest or weed control at 500 g/ha: Euphorbia heterophylla, post-emergence, 312 h, read-out: Control of weed species after post-emergence application, EPHHL (100=total damage to plant; 0=no damage to plant)
Summary of the method: as §1

Structure (SMILES) | pest or weed control at 500 g/ha [1] [%] | pest or weed control at 500 g/ha [2] [%] | pest or weed control at 500 g/ha [3] [%] | pest or weed control at 500 g/ha [4] [%] | pest or weed control at 500 g/ha [5] [%] | pest or weed control at 500 g/ha [6] [%] | pest or weed control at 500 g/ha [7] [%] | pest or weed control at 500 g/ha [8] [%] | pest or weed control at 500 g/ha [9] [%] | Control of weed species after post-emergence application, SETFA (100=total damage to plant; 0=no damage to plant) [1] | Control of weed species after post-emergence application, LOLPE (100=total damage to plant; 0=no damage to plant) [2] | Control of weed species after post-emergence application, CHEAL (100=total damage to plant; 0=no damage to plant) [3] | Control of weed species after post-emergence application, IPOHE (100=total damage to plant; 0=no damage to plant) [4] | Control of weed species after post-emergence application, ECHCG (100=total damage to plant; 0=no damage to plant) [5] | Control of weed species after post-emergence application, AMAPA (100=total damage to plant; 0=no damage to plant) [6] | Control of weed species after post-emergence application, ELEIN (100=total damage to plant; 0=no damage to plant) [7] | Control of weed species after post-emergence application, DIGSA (100=total damage to plant; 0=no damage to plant) [8] | Control of weed species after post-emergence application, EPHHL (100=total damage to plant; 0=no damage to plant) [9]
Nc1nnc(-c2cc[n+](CCC(=O)O)nc2)s1 [Compound A47] | 90 | 100 | 100 | 30 | 90 | 100 | 100 | 90 | 100 | – | – | – | – | – | – | – | – | –
CCOC(=O)c1coc(-c2cc[n+](CCS(=O)(=O)O)nc2)n1 [Compound A124] | – | – | – | – | – | – | – | – | – | 70 | 40 | 30 | 40 | 40 | 90 | 80 | 90 | 90
O=S(=O)([O-])CC[n+]1ccc(-c2nc(C(F)(F)F)cs2)cn1 [Compound A18] | 40 | 40 | 10 | 30 | 30 | 90 | 30 | 30 | 50 | – | – | – | – | – | – | – | – | –
Cc1cnc(-c2cc[n+](CCC(=O)O)nc2)o1 [Compound A15, 3-[4-(5-methyloxazol-2-yl)pyridazin-1-ium-1-yl]propanoic acid; 2,2,2-trifluoroacetate] | 70 | 60 | 80 | 30 | 80 | 100 | 100 | 80 | 100 | – | – | – | – | – | – | – | – | –
O=S(=O)([O-])CC[n+]1ccc(-c2ccns2)cn1 [Compound A5] | 60 | 100 | 100 | 70 | 70 | 100 | 80 | 60 | 100 | – | – | – | – | – | – | – | – | –
COP(=O)([O-])C[n+]1ccc(-c2ncco2)cn1 [Compound A103] | 80 | 30 | 40 | 40 | 70 | 70 | 60 | 90 | 70 | – | – | – | – | – | – | – | – | –
O=C(O)CC[n+]1ccc(-c2nccs2)cn1 [Compound A111] | 100 | 90 | 90 | 70 | 100 | 90 | 100 | 100 | 90 | – | – | – | – | – | – | – | – | –
O=C(O)CC[n+]1ccc(-c2ccno2)cn1 [Compound A96] | 80 | 70 | 90 | 80 | 30 | 100 | 80 | 40 | 100 | – | – | – | – | – | – | – | – | –
Nc1nsc(-c2cc[n+](CCS(=O)(=O)[O-])nc2)n1 [Compound A141] | 50 | 30 | 100 | 100 | 30 | 100 | 10 | 10 | 100 | – | – | – | – | – | – | – | – | –
O=S(=O)([O-])CCC[n+]1ccc(-c2nnco2)cn1 [Compound A7] | 10 | 10 | 0 | 10 | 10 | 0 | 20 | 30 | 20 | – | – | – | – | – | – | – | – | –
O=C(O)CC[n+]1ccc(-c2cncs2)cn1 [Compound A122] | 50 | 20 | 0 | 30 | 30 | 90 | 70 | 90 | 70 | – | – | – | – | – | – | – | – | –
Cc1nc(-c2cc[n+](CCS(=O)(=O)[O-])nc2)sc1C [Compound A17] | 50 | 50 | 30 | 30 | 40 | 30 | 60 | 50 | 40 | – | – | – | – | – | – | – | – | –
O=S(=O)([O-])OCC[n+]1ccc(-c2ncno2)cn1 [Compound A8, 2-[4-(1,2,4-oxadiazol-5-yl)pyridazin-1-ium-1-yl]ethyl sulfate] | 40 | 10 | 10 | 30 | 50 | 10 | 20 | 50 | 30 | – | – | – | – | – | – | – | – | –
Cn1nc(-c2cc[n+](CCS(=O)(=O)[O-])nc2)cc1C(F)(F)F [Compound A29] | 20 | 20 | 50 | 20 | 20 | 20 | 30 | 30 | 20 | – | – | – | – | – | – | – | – | –
Cn1ncc(-c2cc[n+](CCS(=O)(=O)[O-])nc2)n1 [Compound A6] | 70 | 60 | 40 | 10 | 60 | 90 | 60 | 60 | 20 | – | – | – | – | – | – | – | – | –
